Literature values as cited in US7229642B2, “Amino acid modulated extended release dosage form” (Scolr, Inc., priority 1999, dated 2007).
Where two headings read alike, the source gives them in different places.

Conditions: for HYDROPHOBIC VALUE: hydropathy scale of Pliska et al., J. Chromatog. 216, 79, 1981, glycine = 0; for CHARACTERIZATION (hydropathy): hydropathy characteristic in words

| Structure (SMILES) | HYDROPHOBIC VALUE | CHARACTERIZATION (hydropathy) | CHARACTERIZATION (hydropathy) (listed as iso-leucine) | CHARACTERIZATION (hydropathy) (listed as glycine) |
| --- | --- | --- | --- | --- |
| N[C@@H](CO)C(=O)O [Serine] | −0.63 | – | – | – |
| NCCCC[C@H](N)C(=O)O [Lysine] | −1.54 | – | – | – |
| O=C(O)[C@@H]1CCCN1 [Proline] | 0.84 | – | – | – |
| CC[C@H](C)[C@H](N)C(=O)O [Isoleucine] | 1.83 | Strongly Hydrophobic | strongly hydrophobic | – |
| N[C@@H](Cc1c[nH]cn1)C(=O)O [Histidine] | −0.65 | – | – | – |
| N[C@@H](Cc1c[nH]c2ccccc12)C(=O)O [Tryptophan] | 1.35 | – | – | – |
| N[C@@H](Cc1ccccc1)C(=O)O [Phenylalanine] | 1.69 | – | – | – |
| N[C@@H](Cc1ccc(O)cc1)C(=O)O [Tyrosine] | 0.39 | Weakly Hydrophobic | – | – |
| N[C@@H](CS)C(=O)O [Cysteine] | 0.76 | – | – | – |
| C[C@@H](O)[C@H](N)C(=O)O [Threonine] | −0.27 | Weakly Hydrophilic | – | – |
| CC(C)[C@H](N)C(=O)O [Valine] | 1.32 | – | – | – |
| N[C@@H](CC(=O)O)C(=O)O [Aspartic acid] | −2.15 | strongly hydrophilic | – | – |
| CSCC[C@H](N)C(=O)O [Methionine] | 1.10 | Moderately Hydrophobic | – | – |
| NCC(=O)O [Glycine] | 0 | Neutral, Balanced | – | neutral |
| C[C@H](N)C(=O)O [Alanine] | 0.35 | – | – | – |
| NC(=O)C[C@H](N)C(=O)O [Asparagine] | −0.99 | – | – | – |
